Source: US11840686B2, “Modulation of prekallikrein (PKK) expression” (Ionis Pharmaceuticals, Inc., priority 2013, dated 2023)
Strand notation (5' to 3'): a small letter for the sugar, then the base; units joined by * are phosphorothioate-linked, units joined directly phosphodiester-linked; [ ] holds rarer units or linkages, { } end groups; capitals alone tell only the bases. e = 2'-O-(2-methoxyethyl) (MOE); [5mC] = 5-methylcytosine; d = 2'-deoxy (DNA)

Tested on: human PKK mRNA
Assay: Antisense inhibition of human PKK mRNA in HepaRG cells, 5,000 nM (Example 2)
Format: cell-based
Method: Additional antisense oligonucleotides were designed targeting a PKK nucleic acid and were tested for their effects on PKK mRNA in vitro.
The chimeric antisense oligonucleotides in the tables below were designed as 5-10-5 MOE gapmers, 4-9-4 MOE gapmers, 4-10-4 MOE gapmers, 4-10-3 MOE gapmers, 3-10-4 MOE gapmers, or 3-10-3 MOE gapmers. The 5-10-5 MOE gapmers are 20 nucleosides in length, wherein the central gap segment comprises of ten 2′-deoxynucleosides and is flanked by wing segments on the 5′ direction and the 3′ direction comprising five nucleosides each. The 4-9-4 MOE gapmers are 17 nucleosides in length, wherein the central gap segment comprises of nine 2′-deoxynucleosides and is flanked by wing segments on the 5′ direction and the 3′ direction comprising four nucleosides each. The 4-10-4 MOE gapmers are 18 nucleosides in length, wherein the central gap segment comprises of ten 2′-deoxynucleosides and is flanked by wing segments on the 5′ direction and the 3′ direction comprising four nucleosides each. The 4-10-3 MOE gapmers are 17 nucleosides in length, wherein the central gap segment comprises of ten 2′-deoxynucleosides and is flanked by wing segments on the 5′ direction and the 3′ direction comprising four and three nucleosides respectively. The 3-10-4 MOE gapmers are 17 nucleosides in length, wherein the central gap segment comprises often 2′-deoxynucleosides and is flanked by wing segments on the 5′ direction and the 3′ direction comprising three and four nucleosides respectively. The 3-10-3 MOE gapmers are 16 nucleosides in length, wherein the central gap segment comprises of ten 2′-deoxynucleosides and is flanked by wing segments on the 5′ direction and the 3′ direction comprising three nucleosides each. Each nucleoside in the 5′ wing segment and each nucleoside in the 3′ wing segment has a 2′-O-methoxyethyl modification. The internucleoside linkages throughout each gapmer are phosphorothioate linkages. All cytosine residues throughout each gapmer are 5-methylcytosines. “Start site” indicates the 5′-most nucleoside to which the gapmer is targeted in the human gene sequence. “Stop site” indicates the 3′-most nucleoside to which the gapmer is targeted in the human gene sequence.
Cultured HepaRG™ cells at a density of 20,000 cells per well were transfected using electroporation with 5,000 nM antisense oligonucleotide. After a treatment period of approximately 24 hours, RNA was isolated from the cells and PKK mRNA levels were measured by quantitative real-time PCR. Human primer probe set RTS3454 was used to measure mRNA levels. PKK mRNA levels were adjusted according to total RNA content, as measured by RIBOGREEN®. The antisense oligonucleotides were tested in a series of experiments that had similar culture conditions. Results are presented as percent inhibition of PKK, relative to untreated control cells.

[1] = HepaRG cells, electroporation, 5,000 nM antisense oligonucleotide, approx. 24 hours, primer probe set RTS3454, relative to untreated control cells, Table 11
[2] = HepaRG cells, 5,000 nM antisense oligonucleotide, 5-10-5 gapmers, Table 16
[3] = Table 13, human PKK mRNA in HepaRG cells, 5-10-5 gapmers
[4] = HepaRG cells, electroporation with 5,000 nM antisense oligonucleotide, approximately 24 hours, PKK mRNA by RT-PCR (RTS3454), relative to untreated control cells, Table 5 experiment
[5] = HepaRG cells, electroporation with 5,000 nM antisense oligonucleotide, approximately 24 hours, PKK mRNA by RT-PCR (RTS3454), relative to untreated control cells, Table 6 experiment
[6] = Table 8, HepaRG cells, electroporation with 5,000 nM antisense oligonucleotide, approx. 24 hours, PKK mRNA by RT-PCR (RTS3454), relative to untreated control cells
[7] = human PKK mRNA, HepaRG cells, 5,000 nM antisense oligonucleotide, Table 18
[8] = HepaRG cells, 5,000 nM antisense oligonucleotide, human PKK mRNA, Table 18
[9] = human PKK mRNA, HepaRG cells, 5-10-5 motif oligonucleotides targeting SEQ ID NO: 1 and 10
[10] = HepaRG cells, 5,000 nM antisense oligonucleotide, 5-10-5 gapmers, Table 17
[11] = human PKK mRNA in HepaRG cells, 5-10-5 gapmers, Table 14

Substance: 547505 (antisense eG*eA*e[5mC]*eT*eT*dG*dA*dA*d[5mC]*dT*d[5mC]*dA*dG*dG*dT*eT*eG*eT*eA*eA) [compound 547505]
- % inhibition [1]: 69%

Substance: 547693 (antisense eT*e[5mC]*eA*e[5mC]*eT*dG*dT*dA*d[5mC]*d[5mC]*dT*dA*dT*dA*dA*e[5mC]*eT*eG*eT*eA) [compound 547693]
- % inhibition [2]: 61%

Substance: 547580 (eA*eT*e[5mC]*eA*e[5mC]*dT*dG*dT*d[5mC]*d[5mC]*dT*dA*dT*dA*dA*e[5mC]*eT*e[5mC]*eT*eA; antisense) [compound 547580]
- % inhibition [3]: 61%

Substance: 546131 (eA*eT*eG*eA*eA*d[5mC]*dG*dG*dT*d[5mC]*dT*dT*d[5mC]*dA*dA*eG*e[5mC]*eT*eG*eT; antisense) [compound 546131]
- % inhibition [4]: 75%

Substance: 546791 (eG*eA*eT*eG*e[5mC]*dA*dT*dG*d[5mC]*dA*dG*d[5mC]*dA*dA*dT*eA*e[5mC]*eA*eG*eG; antisense) [compound 546791]
- % inhibition [3]: 52%

Substance: 547351 (antisense eT*eT*eT*eG*eG*d[5mC]*dA*dT*dT*d[5mC]*dT*dT*d[5mC]*dA*dA*e[5mC]*eA*e[5mC]*eT*eG) [compound 547351]
- % inhibition [5]: 92%

Substance: 547526 (antisense eG*e[5mC]*eG*eA*e[5mC]*d[5mC]*dT*d[5mC]*dG*d[5mC]*dA*dT*dT*dG*dT*e[5mC]*eA*eG*e[5mC]*e[5mC]) [compound 547526]
- % inhibition [1]: 59%

Substance: 547518 (antisense eT*e[5mC]*e[5mC]*eT*eT*dA*dG*dG*dA*dT*dG*d[5mC]*dA*dA*dA*eG*eA*eA*eG*eA) [compound 547518]
- % inhibition [1]: 51%

Substance: 547424 (eA*eG*eA*eG*e[5mC]*dT*d[5mC]*d[5mC]*d[5mC]*dT*dT*dG*dT*dG*dT*e[5mC]*e[5mC]*e[5mC]*eA*eT; antisense) [compound 547424]
- % inhibition [6]: 90%

Substance: 547281 (antisense eT*eT*eG*e[5mC]*eT*dT*dG*dA*dA*dT*dA*dA*dA*dA*dT*e[5mC]*eA*eT*eT*e[5mC]) [compound 547281]
- % inhibition [4]: 41%

Substance: 546804 (eA*e[5mC]*eA*eT*eG*dA*d[5mC]*dT*d[5mC]*d[5mC]*dA*dG*dT*dG*dA*eT*eG*eG*eA*eT; antisense) [compound 546804]
- % inhibition [3]: 57%

Substance: 547339 (antisense eT*eA*eT*e[5mC]*eA*dA*d[5mC]*dT*d[5mC]*d[5mC]*dT*dT*dT*dA*dT*eA*eA*eA*eT*eG) [compound 547339]
- % inhibition [5]: 42%

Substance: 548772 (antisense eT*eA*eT*eA*dA*d[5mC]*dA*dG*dT*dA*dT*d[5mC]*dA*e[5mC]*eT*eG*eT) [compound 548772]
- % inhibition [7]: 0%

Substance: 548717 (DNA eA*e[5mC]*eT*dA*dG*dT*dT*dT*d[5mC]*d[5mC]*dT*dA*dT*eA*eA*e[5mC]*eT; antisense) [compound 548717]
- % inhibition [8]: 0%

Substance: 546969 (eA*eT*e[5mC]*e[5mC]*eA*dA*d[5mC]*d[5mC]*dT*d[5mC]*dT*d[5mC]*dT*d[5mC]*d[5mC]*e[5mC]*eT*eA*eT*e[5mC]; antisense) [compound 546969]
- % inhibition [2]: 53%

Substance: 547672 (e[5mC]*eA*eA*eT*eA*dT*d[5mC]*dA*d[5mC]*dT*dG*dT*d[5mC]*d[5mC]*dT*eA*e[5mC]*eA*eA*e[5mC]; antisense) [compound 547672]
- % inhibition [9]: 36%

Substance: 547743 (eG*eG*eT*eG*eG*dT*dG*dG*dG*dA*dT*dT*dG*dG*dT*eG*eG*e[5mC]*eG*eG; antisense) [compound 547743]
- % inhibition [10]: 61%

Substance: 547412 (eA*eT*e[5mC]*eA*eT*d[5mC]*dT*dT*dT*dG*dT*dG*d[5mC]*dA*dA*eG*eT*e[5mC]*eT*e[5mC]; antisense) [compound 547412]
- % inhibition [6]: 73%

Substance: 546353 (antisense e[5mC]*eT*e[5mC]*eA*eG*d[5mC]*dG*dA*d[5mC]*dT*dT*dT*dG*dG*dT*eG*eT*eA*eG*eA) [compound 546353]
- % inhibition [1]: 55%

Substance: 547039 (eT*e[5mC]*eT*e[5mC]*eT*dA*dT*dA*d[5mC]*dA*dG*d[5mC]*dT*dG*dG*eG*e[5mC]*eA*e[5mC]*eA; antisense) [compound 547039]
- % inhibition [10]: 0%

Substance: 547716 (e[5mC]*e[5mC]*eA*eT*e[5mC]*dT*dG*dT*d[5mC]*d[5mC]*d[5mC]*d[5mC]*dT*d[5mC]*dA*eA*eT*e[5mC]*e[5mC]*e[5mC]; antisense) [compound 547716]
- % inhibition [2]: 9%

Substance: 546871 (eA*e[5mC]*eT*eG*eT*dA*d[5mC]*d[5mC]*dT*dA*dT*dA*dA*d[5mC]*dT*e[5mC]*eT*eA*eA*e[5mC]; antisense) [compound 546871]
- % inhibition [11]: 73%

Substance: 548754 (antisense eA*eT*e[5mC]*eA*d[5mC]*dT*dG*dT*dA*d[5mC]*dT*dA*dG*dT*eT*eT*e[5mC]*e[5mC]) [compound 548754]
- % inhibition [7]: 77%

Substance: 546385 (eA*eT*eT*eG*eT*d[5mC]*d[5mC]*dT*d[5mC]*dA*dG*d[5mC]*dA*dG*d[5mC]*eT*e[5mC]*eT*eG*eA; antisense) [compound 546385]
- % inhibition [1]: 67%

Substance: 546856 (eA*eA*e[5mC]*eT*eA*dT*dA*dA*d[5mC]*dA*dG*dT*dA*dT*d[5mC]*eA*e[5mC]*eT*eG*eT; antisense) [compound 546856]
- % inhibition [11]: 54%

Substance: 548720 (DNA eT*eG*eT*dA*d[5mC]*dT*dA*dG*dT*dT*dT*d[5mC]*d[5mC]*eT*eA*eT*eA; antisense) [compound 548720]
- % inhibition [8]: 0%

Substance: 546803 (e[5mC]*e[5mC]*e[5mC]*e[5mC]*eA*dT*dA*d[5mC]*dA*dT*d[5mC]*dT*dA*dT*dG*e[5mC]*eA*eA*eA*eT; antisense) [compound 546803]
- % inhibition [3]: 40%

Substance: 547410 (e[5mC]*eA*eA*eG*eT*d[5mC]*dT*d[5mC]*dT*dT*dG*dG*d[5mC]*dA*dA*eA*e[5mC]*eA*eT*eT; antisense) [compound 547410]
- % inhibition [6]: 88%

Substance: 546888 (eT*e[5mC]*e[5mC]*eT*eA*dT*dG*dT*d[5mC]*dA*d[5mC]*dT*dG*dT*dA*e[5mC]*e[5mC]*eT*eA*eT; antisense) [compound 546888]
- % inhibition [9]: 78%

Substance: 547539 (antisense eA*eG*eA*eA*e[5mC]*dT*d[5mC]*d[5mC]*dA*dG*d[5mC]*dA*dG*dA*dA*eA*eT*e[5mC]*e[5mC]*eT) [compound 547539]
- % inhibition (HepaRG cells, electroporation, 5,000 nM antisense oligonucleotide, approx. 24 hours, primer probe set RTS3454, relative to untreated control cells, Table 12): 43%

Substance: 547608 (antisense eT*eA*eT*eA*eA*d[5mC]*dA*dA*dT*dA*dT*d[5mC]*dA*d[5mC]*dT*eG*eT*eA*e[5mC]*e[5mC]) [compound 547608]
- % inhibition [11]: 35%

Substance: 547700 (antisense eG*eT*eA*e[5mC]*e[5mC]*dT*dA*dT*dA*dA*d[5mC]*dT*dA*dT*dA*eA*e[5mC]*eA*eA*eT) [compound 547700]
- % inhibition [2]: 0%

Substance: 547271 (eT*eT*eA*eA*eA*dA*dA*dT*dG*dA*dA*d[5mC]*dG*dG*dT*e[5mC]*eT*eT*e[5mC]*eA; antisense) [compound 547271]
- % inhibition [4]: 60%

Substance: 547509 (antisense e[5mC]*e[5mC]*e[5mC]*e[5mC]*e[5mC]*d[5mC]*dA*dG*dG*d[5mC]*dT*d[5mC]*dA*dG*dA*eA*eT*eT*eT*eG) [compound 547509]
- % inhibition [1]: 58%
